# Experiments:
# thrombocytes = assay: ADP-induced aggregation of thrombocytes in vitro (Born method, plasma enriched with thrombocytes); assay type: cell-based, rabbit; details: 3-minute incubation, ADP 10^−5 M
# Protocol: The aggregation of thrombocytes was studied by the Born method based on determination of the changes in the optical density of plasma enriched with thrombocytes after its incubation with an aggregation inductor.
# Adenozinediphosphoric acid (ADP) was selected as an aggregation inductor, which in fact is an aggregation generator. Use was made of a sample (registration number 885) of the Sigma Diagnostics Company (USA) in final concentration of 10^−5 M.
# The experiments were carried out on male rabbits of the “Chinchilla” breed having a mass of 2.7±0.3 kg. 18-24 hours prior to the experiment they were deprived of feed while preserving free access to water.
# To obtain plasma enriched with thrombocytes, blood was taken from a cut of a marginal vein of the rabbit ear, the sample was stabilized with 3.8% of sodium citrate solution in a ratio of 9:1 and centrifuged at 200 g (1000 rev/min) for 10 minutes. The top supernatant layer enriched with thrombocytes was transferred by an automatic dropper into a silicone test tube and kept at 37° C. The plasma enriched with thrombocytes contained, on the average, […]. If this content exceeded the specified 3×10^8 blood platelets in 1 liter, this sample was diluted to the necessary concentration with plasma deprived of thrombocytes, which was obtained by centrifuging blood at 650 g during 10 minutes.
# The measurements of the optical density of the samples were made on two-channel aggregometer of the “Chronolog” Company (USA). A flask containing 490 mkl of plasma rich with thrombocytes was placed in a device, into which a magnetic agitator covered with Teflon was lowered. The index of maximum amplitude of aggregation (MA) in percent of a fall of the plasma optical density under effect of the aggregation inductor was recorded. The control index MA of plasma was compared with the MA of plasma incubated for 3 minutes with different concentrations of the compounds: from 10^−3 to 10^−7 in vitro experiments or with plasma obtained 15, 30, 60 and 120 minutes after intravenous administration of different doses of the compounds in vivo experiments.
# The process of aggregation of thrombocytes was recorded with the help of a computer; on the monitor screen the there were depicted curves reflecting changes of the optical density of the plasma enriched which was taken as a standard 100% compared to the optical density of the non-thrombocyte plasma taken for 0% content of thrombocytes.
# Under in vitro conditions a flask was filled with blood plasma enriched with thrombocytes, to which an aggregation inductor ADP was added at a concentration of 10^−5 M, incubated for 3 minutes, and then the compounds according to the invention were introduced directly into the flask. Their action by aggregation of thrombocytes was studied after 3-minute incubation in a wide range of concentrations from 10^−3 to 10^−7 M to minimum concentration of 10^−7M not inducing no effect of suppressing the aggregation.
# [1] = Chronic toxicity of suppositories: indexes of urine; assay type: in vivo, rats
# Protocol: The experiments were conducted on inbred rats.
# [2] = Electrochemical activity: polarographic reduction on mercury dripping electrode; assay type: physicochemical; details: for i: 2.0% sodium chloride background, 9·10^−4 M; for i / −E1/2: 37° C., forward trace, average for the group of compounds; for −E1/2: vs SCE
# [3] = rats, suppositories rectal, dose 50 mg/kg, 1 month after administration
# [4] = rats, suppositories rectal, dose 500 mg/kg, 1 month after administration
smiles,measurement,setting,value
"Nc1ccnc2c(=O)n([C@@H]3O[C@H](CO)[C@@H](O)[C@H]3O)[nH]c(=O)c12 [Compound 2, 4-amino-7-(β-D-ribofuranosile)pyrido[2,3-d]-6H-pyridazine-5,8-dione]","MA - fall of optical density of plasma, % to the standard","thrombocytes; 10^−3 M, control 60.8 ± 3.4",51.4 ± 2.7 %
same,"MA - fall of optical density of plasma, % to the standard","thrombocytes; 10^−4 M, control 60.0 ± 2.1",50.4 ± 1.7 %
same,"MA - fall of optical density of plasma, % to the standard","thrombocytes; 10^−5 M, control 52.5 ± 2.1",48.2 ± 1.0 %
same,"MA - drop of optical density, %","thrombocytes; 10^−6 M, control 52.8 ± 1.8",50.1 ± 2.0%
same,"MA - drop of optical density, %","thrombocytes; 10^−7 M, control 51.5 ± 2.1",50.8 ± 2.2%
same,Bilirubin (urine),"[1]; rat, in vivo, 50 mg/kg",<5 Mkmol/l
same,Glucose (urine),"[1]; rat, in vivo, 50 mg/kg",<5 mmol/L
same,Ketone bodies (urine),"[1]; rat, in vivo, 50 mg/kg",<1 mmol/L
same,Potassium (urine),"[1]; rat, in vivo, 50 mg/kg",5.78 ± 1.7 g/L
same,Protein (urine),"[1]; rat, in vivo, 50 mg/kg",0.69 ± 0.33 g/L
same,Sodium (urine),"[1]; rat, in vivo, 50 mg/kg",1.7 ± 0.3 g/L
same,Urea (urine),"[1]; rat, in vivo, 50 mg/kg",457 ± 144 mmol/L
same,Urobilinogen (urine),"[1]; rat, in vivo, 50 mg/kg",<16 Mkmol/l
same,pH (urine),"[1]; rat, in vivo, 50 mg/kg",6.1 ± 0.3
same,Bilirubin (urine),"[1]; rat, in vivo, 500 mg/kg",<5 Mkmol/l
same,Glucose (urine),"[1]; rat, in vivo, 500 mg/kg",<5 mmol/L
same,Ketone bodies (urine),"[1]; rat, in vivo, 500 mg/kg",<1 mmol/L
same,Potassium (urine),"[1]; rat, in vivo, 500 mg/kg",6.24 ± 1.8 g/L
same,Protein (urine),"[1]; rat, in vivo, 500 mg/kg",0.76 ± 0.31 g/L
same,Sodium (urine),"[1]; rat, in vivo, 500 mg/kg",1.27 ± 0.3 g/L
same,Urea (urine),"[1]; rat, in vivo, 500 mg/kg",492 ± 187 mmol/L
same,Urobilinogen (urine),"[1]; rat, in vivo, 500 mg/kg",<16 Mkmol/l
same,pH (urine),"[1]; rat, in vivo, 500 mg/kg",6.2 ± 0.2
"O=c1[nH][nH]c(=O)c2ncccc12.[Li] [Compound 6, lithium salt of pyrido[2,3-d]-6H-pyridazine-5,8-dione]","MA - fall of optical density of plasma, % to the standard","thrombocytes; 10^−3 M, control 60.8 ± 3.4",50.0 ± 1.9 %
same,"MA - fall of optical density of plasma, % to the standard","thrombocytes; 10^−4 M, control 60.0 ± 2.1",53.3 ± 2.2 %
same,"MA - fall of optical density of plasma, % to the standard","thrombocytes; 10^−5 M, control 52.5 ± 2.1",47.4 ± 2.0 %
same,"MA - drop of optical density, %","thrombocytes; 10^−6 M, control 52.8 ± 1.8",51.2 ± 3.2%
same,"MA - drop of optical density, %","thrombocytes; 10^−7 M, control 51.5 ± 2.1",50.7 ± 3.2%
"Nc1cccc2c(=O)[nH][nH]c(=O)c12.[Na] [Compound 15, sodium salt of 5-amino-benzo[d]-3H-pyridazine-1,4-dione]",number of electrons participating in the reduction reaction,[2]; calculated with Geirovsky-Ilkovich equation,4.09
same,i,[2]; pH 7.0,0.23 ± 0.03 mkA
same,−E1/2,[2]; pH 7.0,0.092 ± 0.02 V
same,i,[2]; pH 7.2,0.30 ± 0.01 mkA
same,−E1/2,[2]; pH 7.2,0.09 ± 0.01 V
same,i,[2]; pH 7.4,0.29 ± 0.02 mkA
same,−E1/2,[2]; pH 7.4,0.092 ± 0.02 V
same,i,[2]; pH 7.6,0.31 ± 0.02 mkA
same,−E1/2,[2]; pH 7.6,0.09 ± 0.01 V
same,half-wave potential more positive at reverse stroke compared to forward stroke,[2]; polarograms of reverse stroke,30.0 mV
same,"MA - fall of optical density of plasma, % to the standard","thrombocytes; 10^−3 M, control 60.8 ± 3.4",44.8 ± 2.8 %
same,"MA - fall of optical density of plasma, % to the standard","thrombocytes; 10^−4 M, control 60.0 ± 2.1",46.3 ± 1.7 %
same,"MA - fall of optical density of plasma, % to the standard","thrombocytes; 10^−5 M, control 52.5 ± 2.1",39.8 ± 3.1 %
same,"MA - drop of optical density, %","thrombocytes; 10^−6 M, control 52.8 ± 1.8",47.3 ± 1.8 %
same,"MA - drop of optical density, %","thrombocytes; 10^−7 M, control 51.5 ± 2.1",49.3 ± 1.4%
same,Bilirubin (urine),[1]; [3],<5 Mkmol/l
same,Glucose (urine),[1]; [3],<6 mmol/L
same,Ketone bodies (urine),[1]; [3],<1 mmol/L
same,Potassium (urine),[1]; [3],5.28 ± 1.5 g/L
same,Protein (urine),[1]; [3],0.71 ± 0.274 g/L
same,Sodium (urine),[1]; [3],1.2 ± 0.4 g/L
same,Urea (urine),[1]; [3],413 ± 128 mmol/L
same,Urobilinogen (urine),[1]; [3],<17 Mkmol/l
same,pH (urine),[1]; [3],6.3 ± 0.4
same,Bilirubin (urine),[1]; [4],<5 Mkmol/l
same,Glucose (urine),[1]; [4],<6 mmol/L
same,Ketone bodies (urine),[1]; [4],<1 mmol/L
same,Potassium (urine),[1]; [4],6.13 ± 1.6 g/L
same,Protein (urine),[1]; [4],0.87 ± 0.24 g/L
same,Sodium (urine),[1]; [4],0.64 ± 0.4 g/L
same,Urea (urine),[1]; [4],485 ± 131 mmol/L
same,Urobilinogen (urine),[1]; [4],<17 Mkmol/l
same,pH (urine),[1]; [4],6.2 ± 0.3
"Nc1cnc2c(=O)n([C@@H]3O[C@H](CO)[C@@H](O)[C@H]3O)[nH]c(=O)c2n1.[Na] [Compound 21, sodium salt of 3-amino-7-(β-D-ribofuranosile)pyrazine[2,3-d]-6H-pyridazine-5,8-dione]","MA - fall of optical density of plasma, % to the standard","thrombocytes; 10^−3 M, control 60.8 ± 3.4",47.1 ± 3.0 %
same,"MA - fall of optical density of plasma, % to the standard","thrombocytes; 10^−4 M, control 60.0 ± 2.1",49.2 ± 2.1 %
same,"MA - fall of optical density of plasma, % to the standard","thrombocytes; 10^−5 M, control 52.5 ± 2.1",41.8 ± 2.4 %
same,"MA - drop of optical density, %","thrombocytes; 10^−6 M, control 52.8 ± 1.8",49.6 ± 1.7%
same,"MA - drop of optical density, %","thrombocytes; 10^−7 M, control 51.5 ± 2.1",49.7 ± 2.1%

# Reference: patent US8592421B2, “Cyclic bioisosters of purine system derivatives and a pharmaceutical composition based thereon” (priority 2003, dated 2013)
